± gives the expanded uncertainty stated by the source.
Key:
[1] = Crystal; DTA
[2] = Molar enthalpy of transition or fusion; details: Crystal; DSC

| SMILES | Normal melting temperature [1] | Molar enthalpy of transition or fusion [2] |
| --- | --- | --- |
| CCOc1cc(C=O)ccc1O [3-ethoxy-4-hydroxybenzaldehyde] | 76.7 ± 0.5 °C | 6.06 ± 0.174 kcal/mol |
| COc1cc(C=O)ccc1O [vanillin] | 82.4 ± 0.5 °C | 5.73 ± 0.167 kcal/mol |
| COc1cccc(C=O)c1O [2-hydroxy-3-methoxybenzaldehyde] | 40.5 ± 0.5 °C | 4.94 ± 0.148 kcal/mol |
| CCOc1cccc(C=O)c1O [3-ethoxysalicylaldehyde] | 64.1 ± 0.5 °C | 6.08 ± 0.179 kcal/mol |
